# Results as given in PubChem BioAssay AID1259407 (Chemical Carcinogenesis Research Information System (CCRIS), 2018).
# The source made the active and inactive calls. How the calls were made is not given here.
# Tested on: CCRIS mutagenicity, Ames/micronucleus/aberration tests
# Experiment: CCRIS mutagenicity studies
# [1] = Test System: AMES SALMONELLA TYPHIMURIUM, Strain/Indicator: TA98, Metabolic Activation: NONE, Method: PREINCUBATION
# [2] = Test System: AMES SALMONELLA TYPHIMURIUM, Strain/Indicator: TA98, Metabolic Activation: NONE, Method: STANDARD PLATE
# [3] = Test System: AMES SALMONELLA TYPHIMURIUM, Strain/Indicator: TA98, Metabolic Activation: RAT, LIVER, S-9, AROCLOR 1254, Method: STANDARD PLATE
# [4] = Test System: AMES SALMONELLA TYPHIMURIUM, Strain/Indicator: TA100, Metabolic Activation: NONE, Method: STANDARD PLATE
# [5] = Test System: AMES SALMONELLA TYPHIMURIUM, Strain/Indicator: TA100, Metabolic Activation: RAT, LIVER, S-9, AROCLOR 1254, Method: STANDARD PLATE
# [6] = Test System: AMES SALMONELLA TYPHIMURIUM, Strain/Indicator: TA1535, Metabolic Activation: NONE, Method: STANDARD PLATE
# [7] = Test System: AMES SALMONELLA TYPHIMURIUM, Strain/Indicator: TA1535, Metabolic Activation: RAT, LIVER, S-9, AROCLOR 1254, Method: STANDARD PLATE
# [8] = Test System: AMES SALMONELLA TYPHIMURIUM, Strain/Indicator: TA1537, Metabolic Activation: NONE, Method: STANDARD PLATE
# [9] = Test System: AMES SALMONELLA TYPHIMURIUM, Strain/Indicator: TA1537, Metabolic Activation: RAT, LIVER, S-9, AROCLOR 1254, Method: STANDARD PLATE
smiles,measurement,setting,value
c1ccc2c(c1)COC2,mutagenic call,[1],active; positive
COC(=O)Nc1nc2ccc(/C(=N/O)c3ccc(F)cc3)cc2[nH]1,mutagenic call,[2],inactive; negative
same,mutagenic call,[3],active; positive
same,mutagenic call,[4],inactive; negative
same,mutagenic call,[5],inactive; negative
CCN(C=O)N=O,mutagenic call,[6],active; positive
same,mutagenic call,"Test System: E. COLI, Strain/Indicator: WU3610, Metabolic Activation: NONE, Method: SUSPENSION/PLATE",active; positive
COc1ccc2c(cc3c4c(cc5c(c42)OCO5)C(=O)C(=O)N3C)c1OC,mutagenic call,"Test System: AMES SALMONELLA TYPHIMURIUM, Strain/Indicator: TA98, Metabolic Activation: RAT, LIVER, S-9, PHENOBARBITAL AND BETA-NAPHTHOFLAVONE, Method: PREINCUBATION",active; positive
same,mutagenic call,"Test System: AMES SALMONELLA TYPHIMURIUM, Strain/Indicator: TA100, Metabolic Activation: RAT, LIVER, S-9, PHENOBARBITAL AND BETA-NAPHTHOFLAVONE, Method: PREINCUBATION",active; positive
C=C(C)C(=O)OCC(C)(C)C,mutagenic call,[2],inactive; negative
same,mutagenic call,[3],inactive; negative
same,mutagenic call,"Test System: AMES SALMONELLA TYPHIMURIUM, Strain/Indicator: TA98, Metabolic Activation: RAT, LIVER, S-9, SODIUM PHENOBARBITAL, Method: STANDARD PLATE",inactive; negative
same,mutagenic call,[4],inactive; negative
same,mutagenic call,[5],inactive; negative
same,mutagenic call,"Test System: AMES SALMONELLA TYPHIMURIUM, Strain/Indicator: TA100, Metabolic Activation: RAT, LIVER, S-9, SODIUM PHENOBARBITAL, Method: STANDARD PLATE",inactive; negative
same,mutagenic call,[6],inactive; negative
same,mutagenic call,[7],inactive; negative
same,mutagenic call,"Test System: AMES SALMONELLA TYPHIMURIUM, Strain/Indicator: TA1535, Metabolic Activation: RAT, LIVER, S-9, SODIUM PHENOBARBITAL, Method: STANDARD PLATE",inactive; negative
same,mutagenic call,[8],inactive; negative
same,mutagenic call,[9],inactive; negative
same,mutagenic call,"Test System: AMES SALMONELLA TYPHIMURIUM, Strain/Indicator: TA1537, Metabolic Activation: RAT, LIVER, S-9, SODIUM PHENOBARBITAL, Method: STANDARD PLATE",inactive; negative
same,mutagenic call,"Test System: AMES SALMONELLA TYPHIMURIUM, Strain/Indicator: TA1538, Metabolic Activation: NONE, Method: STANDARD PLATE",inactive; negative
same,mutagenic call,"Test System: AMES SALMONELLA TYPHIMURIUM, Strain/Indicator: TA1538, Metabolic Activation: RAT, LIVER, S-9, AROCLOR 1254, Method: STANDARD PLATE",inactive; negative
same,mutagenic call,"Test System: AMES SALMONELLA TYPHIMURIUM, Strain/Indicator: TA1538, Metabolic Activation: RAT, LIVER, S-9, SODIUM PHENOBARBITAL, Method: STANDARD PLATE",inactive; negative
CC(C)=CC1C(C(=O)OCc2cccc(Oc3ccccc3)c2)C1(C)C (stereo unspecified),mutagenic call,"Test System: AMES SALMONELLA TYPHIMURIUM, Strain/Indicator: TA98",inactive; negative
same,mutagenic call,"Test System: AMES SALMONELLA TYPHIMURIUM, Strain/Indicator: TA98, Metabolic Activation: NONE",inactive; negative
same,mutagenic call,[2],inactive; negative
same,mutagenic call,[3],inactive; negative
same,mutagenic call,"Test System: AMES SALMONELLA TYPHIMURIUM, Strain/Indicator: TA100",active; positive
same,mutagenic call,"Test System: AMES SALMONELLA TYPHIMURIUM, Strain/Indicator: TA100, Metabolic Activation: NONE",active; positive
same,mutagenic call,[4],inactive; negative
same,mutagenic call,[5],inactive; negative
same,mutagenic call,[6],inactive; negative
same,mutagenic call,[7],inactive; negative
same,mutagenic call,[8],inactive; negative
same,mutagenic call,[9],inactive; negative
same,mutagenic call,"Test System: E. COLI, Strain/Indicator: WP2, Metabolic Activation: NONE, Method: STANDARD PLATE",inactive; negative
same,mutagenic call,"Test System: E. COLI, Strain/Indicator: WP2, Metabolic Activation: RAT, LIVER, S-9, AROCLOR 1254, Method: STANDARD PLATE",inactive; negative
CC(=O)N=C1C=CC(=O)C=C1,mutagenic call,[1],inactive; negative
same,mutagenic call,"Test System: AMES SALMONELLA TYPHIMURIUM, Strain/Indicator: TA102, Metabolic Activation: NONE, Method: PREINCUBATION",inactive; negative
same,mutagenic call,"Test System: UDS MOUSE HEPATOCYTES, Strain/Indicator: THY INCORP (NON-S-PHASE), Metabolic Activation: NONE, Method: LIQUID SCINTILLATION COUNTING",inactive; negative
